Data from the NIST ThermoML archive (doi:10.1016/j.fluid.2005.08.021).
Numbers after ± are expanded uncertainties.

Details: Crystal; visual observation

Structure (SMILES) | Normal melting temperature [°C]
CC(C)(C)O [2-methylpropan-2-ol] | 25.6 ± 0.4
Oc1cccc(Cl)c1 [3-chlorophenol] | 32.4 ± 0.4
Oc1ccc(Cl)cc1 [4-chlorophenol] | 42.5 ± 0.4
